Measurements reported in the METLIN SMRT retention time set (Domingo-Almenara et al. 2019).

Assay: gradient 5% acetonitrile 3 min, to 50% in 2 min, to 85% in 15 min, held 3 min, 100 µL/min
Conditions: column: Zorbax Extend-C18 2.1 x 50 mm; eluents: water / acetonitrile, 0.1% formic acid
In short: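 Each retention time is based on an adduct peak selected computationally and verified by manual inspection. Measurements used HPLC–quadrupole time-of-flight mass spectrometry in positive and negative ionization mode on mixtures of ~100 pure standards. Chromatography ran on a Zorbax Extend-C18 column (2.1 × 50 mm, 1.8 μm) at 100 μL/min with water and acetonitrile, each containing 0.1% formic acid, and dead and dwell volumes of 40 μL and 900 μL.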

| Compound | RP-LC retention time [s] |
| --- | --- |
| COc1ccc(-c2nnc(N3CCC(C(=O)NCc4cc(F)ccc4F)CC3)o2)cc1 | 824 |
| O=C(c1ccc(F)c(F)c1)N1CCCN(c2cc(-c3ccc4c(c3)OCO4)[nH]n2)CC1 | 703 |
| Cc1cccc(-n2c(=O)c3c(cc(C)n3C)n(CC(=O)Nc3cc(C)ccc3C)c2=O)c1 | 844 |
| COCc1noc(CC2CCOC3(CCN(C(=O)NC4CCCCC4)CC3)C2)n1 (stereo not given) | 758 |
| CC1CCc2cc(F)ccc2N1C(=O)C12CCC(C1)C(C)(C)C2=O (stereo not given) | 1020 |
| CSc1ccc(-c2nc3ccccn3c2Nc2ccc3c(c2)OCCO3)cc1 | 712 |
| CCOC(=O)c1ccc(NC(=O)Cn2c(C)cc(=O)c3cc(Br)ccc32)cc1 | 623 |
| Cc1ccc(-c2nc(-c3ccc(S(=O)(=O)N4CCOCC4)cc3)no2)cc1F | 1190 |
| O=C(Cn1c(=O)c2cccn2c2ccccc21)Nc1ccccc1F | 824 |
| O=C(CC1CCCC1)NCCC1CCN(C(=O)Nc2cc(F)ccc2F)CC1 | 847 |
| Cc1ccc(N2CCN(S(=O)(=O)c3ccc(-c4nnc(C5CC5)o4)o3)CC2)cc1 | 1040 |
| CN(C)CCn1c2c(c(SCC(=O)Nc3cccc(Cl)c3)nc1=O)CCC2 | 651 |
| O=C(Nc1nnc(C2CCCO2)o1)c1ccc([N+](=O)[O-])s1 (stereo not given) | 685 |
| COc1ccccc1CNC(=O)CN1CCc2[nH]c3c(C)c(Cl)ccc3c(=O)c2C1 | 649 |
| CCOC(=O)c1ccccc1NC(=O)CSc1nnc(NC(=O)C(C)(C)C)s1 | 929 |
| CCc1nnc2ccc(-c3noc(-c4ccc(Cl)cc4)n3)cn12 | 1050 |
| CCCNC(=O)C1CC(=O)N(c2ccc3c(c2)CCN3C(=O)C2CC2)C1 (stereo not given) | 659 |
| Cc1cc2n(n1)CCC(=O)N2CCCC(=O)NCc1cccs1 | 637 |
| Cc1cc(C)n(CCC(=O)N2CC[C@@H]3CN(S(C)(=O)=O)[C@@H]3C2)n1 | 594 |
| CCOc1ccc(S(=O)(=O)N2CCCC(C(=O)NC)C2)cc1C (stereo not given) | 788 |
| Cn1c(=O)c(C(=O)NC2CCCC2)nc2cccnc21 | 707 |
| Cc1cccc(Oc2nccnc2N2CCC(C(=O)NC(C)c3ccccc3)CC2)c1 (stereo not given) | 1020 |
| Cc1cnn(CCC(=O)N2CCCn3ccnc3C2C2CCCC2)c1 (stereo not given) | 611 |

| Compound | RP-LC retention time [s] |
| --- | --- |
| O=C(NC1CC1)c1ccc(OCC2CCCN(C(=O)c3ccsc3)C2)cc1 (stereo not given) | 737 |
| Cc1cccc(N2CCN(C(=O)C3CCN(c4cnc5nccnc5c4)CC3)CC2)c1 | 749 |
| CCOc1ccc(NS(=O)(=O)c2cc(C(=O)N3CCN(c4ccccc4OC)CC3)n[nH]2)cc1 | 846 |
| CC1CCN(S(=O)(=O)c2ccc3c(c2)CCCC(=O)N3CC(=O)N(C)C2CCCCC2)CC1 | 1040 |
| Cn1c(CNC(=O)C2CCC2)nc2c1CN(S(=O)(=O)Cc1ccc(Cl)cc1)CC2 | 586 |
| CCc1cc(C(=O)Nc2cc(C)cc(C)c2)nc2ccnn12 | 1140 |
| Cc1ccc(NC(=O)CN2C(=O)CCCc3cc(S(=O)(=O)N4CCCCC4)ccc32)cc1 | 845 |
| COc1ccc(-c2cc3n(n2)CCCN(C(=O)c2ccco2)C3)cc1 | 758 |
| COCc1c(C(=O)O)nnn1-c1cccc(Br)c1 | 729 |
| O=C(Cc1c[nH]c2ccccc12)N1CCC(c2noc(-c3ccccc3)n2)CC1 | 914 |
| COC(=O)c1cccc(NC(=O)C2CC(=O)N(c3ccc4c(c3)CCN4C(C)=O)C2)c1 (stereo not given) | 687 |
| Cc1ccc(CN2CCC(c3nc(-c4cnccn4)n[nH]3)CC2)o1 | 566 |
| CCc1ccc(OCC(=O)Nc2cnn(CC)c(=O)c2N2CCOCC2)cc1 | 981 |
| CCc1nc(C2CCN(C(=O)C3(c4ccc(OC)cc4)CC3)CC2)n[nH]1 | 551 |
| COc1cccc(S(=O)(=O)N2CCC(N3CCN(Cc4ccc(C)cc4)C(=O)C3=O)CC2)c1 | 861 |
| CNCc1cc(-c2ccccc2F)n(S(=O)(=O)c2cccnc2)c1 | 682 |
| CCN1CCN(c2cc(C)c3cc(NC(=O)CC4CCCC4)ccc3n2)CC1 | 595 |
| Cc1ccc2c(c1)C(=O)NC1(CCN(C(=O)Cc3ccccc3Cl)CC1)N2C | 841 |
| O=C(Cn1c2ccccc2c2ncn(Cc3nc(-c4ccccc4)no3)c(=O)c21)NC1CCCCC1 | 976 |
| CN1C(=O)c2cc(C(=O)NCCc3ccccc3)nn2CC1(C)C(=O)NC1CCCCCC1 (stereo not given) | 795 |
| Cn1cc(C(=O)NCc2ccc(F)cc2)c2cccnc21 | 721 |
| O=C(COc1ccc(F)cc1)Nc1cc(F)c2nc(N3CCOCC3)ccc2c1 | 882 |
| Cc1noc([C@@H]2CC(F)(F)CN2S(=O)(=O)c2cccc(F)c2)n1 | 891 |

| Compound | RP-LC retention time [s] |
| --- | --- |
| CC(NC(=O)Cc1cccc(F)c1)C(=O)Nc1nc2ccccc2[nH]1 (stereo not given) | 640 |
| CCSc1nnc(NC(=O)Cn2nc(-n3cccn3)ccc2=O)s1 | 653 |
| Cc1ccc(-c2nnc(CC(=O)NCCc3ccc(Cl)cc3)o2)cc1 | 906 |
| Cc1ccc(Cn2nnc(-c3noc(C)n3)c2C)cc1 | 860 |
| CCc1nc(N)n(CC(=O)NCc2ccc(Cl)cc2)c(=O)c1C | 645 |
| Cc1nn(CC(=O)NCC(C)C)c(=O)c2nc(-c3ccccc3)sc12 | 830 |
| O=C(Nc1ccc(C(F)(F)F)cc1)N1CCCC1c1nncn1C1CCCC1 (stereo not given) | 781 |
| O=c1c2c(CO)c(-c3ccccc3)nn2ccn1Cc1ccccc1Cl | 961 |
| CCCS(=O)(=O)c1nc2ccc(NS(=O)(=O)c3cc(F)ccc3F)cc2s1 | 918 |
| Cc1nn(C(C)C(=O)NCCC(C)C)c(=O)c2c(C)n(-c3ccccc3)nc12 (stereo not given) | 948 |
| CCOc1ccc(S(=O)(=O)NC2CC(=O)N(C3CC3)C2)cc1 (stereo not given) | 652 |
| CSc1nnc(NC(=O)c2cc(Cl)ccc2Cl)s1 | 808 |
| CCc1ccc(C(=O)N2CCN(C(=O)c3nnn4c3COC(c3ccc(C)cc3)C4)CC2)cc1 (stereo not given) | 1000 |
| Cc1nc(OCC(=O)Nc2cccc(C(F)(F)F)c2)c2ccccc2n1 | 817 |
| O=C(Nc1ccc(Br)cc1F)NC1CCN(c2ccc(F)cc2)C1=O (stereo not given) | 937 |
| CCn1c(=O)n(CC)c2cc(NC3=NS(=O)(=O)c4ccccc43)ccc21 | 702 |
| NC(=O)c1nnsc1-c1ccc(-c2snnc2C(N)=O)cc1 | 694 |
| CCCC(NC(=O)c1ccncc1)C(=O)Nc1nc2ccccc2[nH]1 (stereo not given) | 602 |
| Cc1cnc(C)n1C1CCN(S(=O)(=O)c2ccccc2)CC1 | 634 |
| COc1ccc(C)cc1NC(=O)Cn1nc2cc(C)nc(Nc3ccc(C)cc3)n2c1=O | 1150 |
| O=C(Cn1cccc(-c2nc(-c3ccc(Br)cc3)no2)c1=O)Nc1cccc(F)c1 | 992 |
| Cn1cc(-c2ccncc2)cc1C(=O)N1CCN(c2cccc(Cl)c2)CC1 | 679 |
| O=C(c1ccccc1Cl)N1CCC2(CC1)OCC(C(=O)N1CCOCC1)N2C(=O)c1ccccc1 (stereo not given) | 656 |

| Compound | RP-LC retention time [s] |
| --- | --- |
| C=CCn1c(SCC(=O)NCC2CCCO2)nc2scc(-c3ccc(C)o3)c2c1=O (stereo not given) | 895 |
| COCCn1c(SCc2nc(-c3ccc(Cl)cc3)no2)nc2cc3c(cc2c1=O)OCO3 | 1180 |
| Cc1ccc(CNC(=O)Cn2c(=O)nc(N3CCC(C)CC3)c3ccccc32)cc1 | 860 |
| O=C(Cn1c(=O)c2cc(-c3ccco3)nn2c2ncccc21)Nc1ccc(F)cc1 | 814 |
| O=C(CN1CCN(Cc2ccccc2F)C1=O)NCc1ccc(N2CCCCC2)cc1 | 605 |
| CCn1nc(C)c(-c2cc(C(=O)N3CCCCCCNC(=O)[C@@H]4CCCC[C@@H]43)no2)c1C | 834 |
| COCc1nncn1C1CCN(S(=O)(=O)c2cccc(Cl)c2)CC1 | 738 |
| CC1CCC(Nc2c(-c3cccc(F)c3)nc3ncccn23)CC1 (stereo not given) | 905 |
| CCC(=O)NCc1nc2c(n1CC)CN(S(=O)(=O)c1ccc(C)c(C)c1)CC2 | 583 |
| CC1=NS(=O)(=O)c2cccnc2N1c1cccc(Br)c1 | 825 |
| CCOC(=O)N1CCN(C(=O)CSc2ccc3nnc(-c4cccnc4)n3n2)CC1 | 585 |
| Cc1cc(=O)n(CC(=O)Nc2cccc(C#N)c2)c(N2CCOCC2)n1 | 604 |
| Cc1cccc(C)c1Nc1c(-c2ccc(Cl)cc2)nc2cnccn12 | 1030 |
| Cc1ccc(NS(=O)(=O)c2cc3c(=O)n(C)ncn3c2)cc1F | 841 |
| O=C(CCCn1nc(-c2ccc(F)cc2)ccc1=O)Nc1nc2ccccc2[nH]1 | 584 |
| Cc1sc(NC(=O)c2cccnc2)nc1-c1ccc2c(c1)N(C)C(=O)CO2 | 754 |
| Cc1nn(C)c(C)c1CNC(=O)C1CCN(c2nnc3ccccn23)CC1 | 515 |
| CCOC(=O)c1cc2c([nH]c1=O)CC(c1ccc(C)cc1)CC2=O (stereo not given) | 780 |
| CCOC(=O)c1noc2ncnc(N3CCN(c4ccccc4)CC3)c12 | 968 |
| CC1=C(c2ccc(F)cc2)S(=O)(=O)N=C1N1CCCN(C(=O)C2CCC2)CC1 | 790 |
| CCc1nnc(-c2cccs2)o1 | 731 |
